For `CN(CCCCC(=O)OC[C@@H]1CC(c2ccc(-c3ccc(N4C[C@H](Cn5ccnn5)OC4=O)cc3F)cn2)=NO1)C(=O)OC(C)(C)C`, the melting point amounted to 121 °C.

`CCOC(=O)NN=C(C)c1cccc(C(F)(F)F)c1` returned a melting point of 94 to 96 °C.

As for `COc1cccc2oc(C(=O)c3cccc(C(F)(F)F)c3)c(C)c12`, the melting point lay in the range of 91 to 92 °C.

On to `Cc1cn(C(C(=O)N(C)C)C(C)C)nc1-c1ccccc1` (stereo unspecified), for which the melting point lay in the range of 66.5 to 68.5 °C.

Molecule `CN(C(=O)Nc1ccc(Cl)c(Cl)c1)S(=O)C(C)(C)C` (stereo unspecified) displayed a melting point of 118 °C.

Molecule `CC(=O)Nc1cccc2c1Cc1ccccc1C2=O` gave a melting point of 266 °C.

For `CC1=C2CCC(=O)C23CCC(C3)C1(C)C` (stereo unspecified), the melting point was in the range of 35 to 36 °C.

In the case of `CCOc1ccc(F)cc1C1OC(=O)NC1=O` (stereo unspecified), the melting point was 188 to 190 °C.

Regarding `Cc1cc(N)c(C)c(C(=O)O)c1`, the melting point came out at 146 °C.

`CC(Cl)OC(=O)C=Cc1cc(N=C=O)ccc1Cl` (stereo unspecified) showed a melting point of 48 to 50 °C.

With `COc1ccc(C(=O)CCCCCBr)c(Cl)c1Cl`, the melting point lay in the range of 52 to 53 °C.

As for `CN1CCCc2cccc(CS(=O)c3nc4ccccc4[nH]3)c21` (stereo unspecified), the melting point was in the range of 112 to 113 °C.

`CC(=O)c1c2sc3ccccc3nc-2ccc1=O` yielded a melting point of 222 °C.

`Cc1ccc2c(N3CCN(C)C3=O)ccnc2c1NC(=O)c1c(Cl)cccc1Cl` showed a melting point greater than 250 °C.

`CCCOc1ccc(-c2ccc(OCC(CN3C(=O)NC(C)(C)C3=O)N(O)C=O)cc2)cc1` (stereo unspecified) registered a melting point of 158 to 160 °C.

Regarding `C#Cc1nc(NOC)c2ncn([C@@H]3O[C@H](CO)[C@@H](O)[C@H]3O)c2n1`, the melting point lay in the range of 165 to 167 °C.

Molecule `COC(=O)c1ccc(NC(C)=O)c(NC(=O)C(COC(C)=O)OC(C)=O)c1` (stereo unspecified) had a melting point of 130 to 134 °C.

Take `CCCC(C)(C)NC(=O)NC1=CC(=O)OC1`: the melting point lay in the range of 130 to 132 °C.

In turn, `COc1ccc(CCc2nnc(-c3ccc4nccn4c3)o2)cc1C(F)(F)F` had a melting point of 150 to 151 °C.

Molecule `CC(C)CN(Cc1nc(-c2ncn3c2[C@@H]2CCN2C(=O)c2c(Cl)cccc2-3)no1)CC(C)C` yielded a melting point of 125 to 140 °C.

Regarding `COc1ccc(S(=O)(=O)C2SC(=O)NC2=O)cc1` (stereo unspecified), the melting point is 93 to 95 °C.

In turn, `CCCc1ccc(S(=O)(=O)Nc2ccc3oncc3c2)cc1` had a melting point of 130 to 131 °C.

For the molecule `CC(C)CC(=O)Nc1cccc(-c2ccnc3c(-c4ccc(CO)cc4)cnn23)c1`, the melting point lay in the range of 170 to 172 °C.

In the case of `CC1N=C(c2ccccc2)NC1=O` (stereo unspecified), the melting point turned out to be 165 °C.

`O=C(NCCN1CCCCC1)Nc1ccc(-c2cnc(COCc3cc4ccccc4o3)o2)cc1` yielded a melting point of 102 to 104 °C.

The molecule `CNC(=O)c1ccccc1Nc1nc(Nc2ccc3c(c2)CCN(C(=O)C(F)(F)F)CC3)ncc1Cl` yielded a melting point of 192 to 194 °C.

The molecule `CC(=O)Oc1ccc(CC2CCCN2C)cc1OC(C)=O` (stereo unspecified) yielded a melting point of 44 to 45 °C.

Molecule `COC(=O)CC1CCN(C(=O)C2CCN(c3ccc(C#N)cn3)CC2)CC1` had a melting point of 112 to 115 °C.

On to `CCCCSc1cc(C(=O)OC)cc(S(N)(=O)=O)c1Oc1ccccc1`, for which the melting point was in the range of 122 to 123 °C.

On to `CC(C)C(=O)N(O)C(c1ccccc1)c1cc(C(C)(C)C)c(O)c(C(C)(C)C)c1` (stereo unspecified), for which the melting point lay within 179 to 180 °C.

Take `CN1C(=O)CCC(C(=O)O)C1c1ccc2c(c1)OCO2` (stereo unspecified): the melting point was 231 to 232 °C.

For `CCOC(=O)CCCSc1nccc(NC(N)=NCC(F)(F)F)n1`, the melting point lay within 120 to 122 °C.

As to `NC(=O)N(O)Cc1ccc(OCCc2csc(-c3ccccc3)n2)cc1`, the melting point was in the range of 137 to 138 °C.

For `CCCCN=C(c1cc(Cl)ccc1O)c1ccccc1Cl`, the melting point is 49.6 °C.

Molecule `O=[N+]([O-])c1ccc(C=[N+]([O-])c2cccc(CO)c2)o1` displayed a melting point of 187 to 188 °C.

Consider `CCOC(=O)c1cnn(C)c1C(=O)Nc1ccc2nc(-c3ccccc3)nn2c1`, for which the melting point fell in the range of 251 to 254 °C.

The term melting point denotes the temperature, or range, at which the solid turns liquid.

The record behind these values is a melting point compilation (Tetko et al.; mined from patent text by program, amines drawn as free bases though some values may be those of a salt).
